{"source": "patent US12570988B2", "about": "“Aptamers that bind thiamine analogs and derivatives” (MeiraGTx Gene Regulation Limited, priority 2020, dated 2026)", "key": {"riboswitch 15D10 [1]": {"test_system": "riboswitch 15D10", "assay": "Luciferase reporter with 15D10 riboswitch (Luci-15D10) in AML12 cells", "assay_type": "cell-based, mouse", "conditions": "Mus musculus, AML12, 24 h, 50 μM, AML12 cells, read-out: Fold increase in riboswitch 15D10-regulated luciferase expression, AML"}, "riboswitch 15D10 [2]": {"test_system": "riboswitch 15D10", "assay": "Luciferase reporter with 15D10 riboswitch (Luci-15D10) in HEK 293 cells", "assay_type": "cell-based, human", "conditions": "Homo sapiens, HEK293, 24 h, 50 μM, HEK 293 cells, read-out: Fold increase in riboswitch 15D10-regulated luciferase expression, HEK", "experimental": "Transfection: 3.5×10^4 human embryonic kidney (HEK) 293 cells were plated in a 96-well flat bottom plate the day before transfection. Plasmid DNA (500 ng) was added to a tube or a 96-well U-bottom plate. […] Then, 50 μL of this diluted transfection reagent was added to the DNA, mixed, and incubated at RT for 20 min. Finally, 7 μL of this solution was added to a well of cells in the 96-well plate. Four hours after transfection, medium containing transfection solution was replaced by medium containing either TPP, fursultiamine, prosultiamine, bisbentiamine, beclotiamine hydrochloride, or sulbutiamine as aptamer inducers.\nFirefly luciferase assay of cultured cells: Twenty-four hours after media change, plates were removed from the incubator, and equilibrated to RT for several minutes on a lab bench, then aspirated. Glo-lysis buffer (Promega, 100 μL, RT) was added, and the plates allowed to remain at RT for at least 5 minutes. Then, the well contents were mixed by 50 μL trituration, and 20 μL of each sample was mixed with 20 μL of bright-glo reagent (Promega) that had been diluted to 10% in glo-lysis buffer. 96 wells were spaced on an opaque white 384-well plate. Following a 5 min incubation at RT, luminescence was measured using a Tecan machine with 500 ms read time. The luciferase activity was expressed as mean arbitrary light units (ALU)±S.D., and fold induction was calculated as the quotient of the luciferase activity obtained from cells with TPP or analog treatment divided by the luciferase activity obtained from cells without TPP or analog treatment."}}}
{"smiles": "C/C(=C(\\CCO)SC(=O)c1ccc2sccc2c1)N(C=O)Cc1cnc(C)nc1N", "note": "[Compound M79, (Z)—S-(2-(N-((4-amino-2-methylpyrimidin-5-yl)methyl)formamido)-5-hydroxypent-2-en-3-yl) benzo[b]thiophene-5-carbothioate]", "values": [{"measurement": "fold induction at 50 µM", "setting": "riboswitch 15D10 [1]; Table 2", "value": 358}, {"measurement": "fold induction at 50 µM", "setting": "riboswitch 15D10 [2]; Table 2", "value": 353}]}
{"smiles": "COCCOc1ccc(C(=O)S/C(CCO)=C(/C)N(C=O)Cc2cnc(C)nc2N)cc1", "note": "[Compound M82, (Z)—S-(2-(N-((4-amino-2-methylpyrimidin-5-yl)methyl)formamido)-5-hydroxypent-2-en-3-yl) 4-(2-methoxyethoxy)benzothioate]", "values": [{"measurement": "fold induction at 50 µM", "setting": "riboswitch 15D10 [1]; Table 2", "value": 73.9}, {"measurement": "fold induction at 50 µM", "setting": "riboswitch 15D10 [2]; Table 2", "value": 89.2}]}
{"smiles": "C/C(=C(\\CCO)SC(=O)/C=C/c1ccc2ccccc2c1)N(C=O)Cc1cnc(C)nc1N", "note": "[Compound M88, S—((Z)-2-(N-((4-amino-2-methylpyrimidin-5-yl)methyl)formamido)-5-hydroxypent-2-en-3-yl) (E)-3-(naphthalen-2-yl)prop-2-enethioate]", "values": [{"measurement": "fold induction at 50 µM", "setting": "riboswitch 15D10 [1]; Table 2", "value": 355}, {"measurement": "fold induction at 50 µM", "setting": "riboswitch 15D10 [2]; Table 2", "value": 216}]}
{"smiles": "C/C(=C(\\CCO)SCOC(=O)c1cccc2ccccc12)N(C=O)Cc1cnc(C)nc1N", "note": "[Compound M97, (Z)-((2-(N-((4-amino-2-methylpyrimidin-5-yl)methyl)formamido)-5-hydroxypent-2-en-3-yl)thio)methyl 1-naphthoate]", "values": [{"measurement": "fold induction at 50 µM", "setting": "riboswitch 15D10 [1]; Table 2", "value": 126}, {"measurement": "fold induction at 50 µM", "setting": "riboswitch 15D10 [2]; Table 2", "value": 299}]}
{"smiles": "C/C(=C(\\CCO)SCOC(=O)c1cc2ccccc2c2ccccc12)N(C=O)Cc1cnc(C)nc1N", "note": "[Compound M98, (Z)-((2-(N-((4-amino-2-methylpyrimidin-5-yl)methyl)formamido)-5-hydroxypent-2-en-3-yl)thio)methyl phenanthrene-9-carboxylate]", "values": [{"measurement": "fold induction at 50 µM", "setting": "riboswitch 15D10 [1]; Table 2", "value": 57.7}, {"measurement": "fold induction at 50 µM", "setting": "riboswitch 15D10 [2]; Table 2", "value": 13.6}]}
{"smiles": "C/C(=C(\\CCO)SCOC(=O)c1ccc2c(c1)C(C)(C)CCC2(C)C)N(C=O)Cc1cnc(C)nc1N", "note": "[Compound M99, (Z)-((2-(N-((4-amino-2-methylpyrimidin-5-yl)methyl)formamido)-5-hydroxypent-2-en-3-yl)thio)methyl 5,5,8,8-tetramethyl-5,6,7,8-tetrahydronaphthalene-2-carboxylate]", "values": [{"measurement": "fold induction at 50 µM", "setting": "riboswitch 15D10 [1]; Table 2", "value": 0.4}, {"measurement": "fold induction at 50 µM", "setting": "riboswitch 15D10 [2]; Table 2", "value": 0.2}]}
{"smiles": "CCOc1ccc2ccccc2c1C(=O)OCS/C(CCO)=C(/C)N(C=O)Cc1cnc(C)nc1N", "note": "[Compound M100, (Z)-((2-(N-((4-amino-2-methylpyrimidin-5-yl)methyl)formamido)-5-hydroxypent-2-en-3-yl)thio)methyl 2-ethoxy-1-naphthoate]", "values": [{"measurement": "fold induction at 50 µM", "setting": "riboswitch 15D10 [1]; Table 2", "value": 0.4}, {"measurement": "fold induction at 50 µM", "setting": "riboswitch 15D10 [2]; Table 2", "value": 1.1}]}
{"smiles": "C/C(=C(\\CCO)SCOC(=O)C(C)(C)Cc1ccc2ccccc2c1)N(C=O)Cc1cnc(C)nc1N", "note": "[Compound M101, (Z)-((2-(N-((4-amino-2-methylpyrimidin-5-yl)methyl)formamido)-5-hydroxypent-2-en-3-yl)thio)methyl 2,2-dimethyl-3-(naphthalen-2-yl)propanoate]", "values": [{"measurement": "fold induction at 50 µM", "setting": "riboswitch 15D10 [1]; Table 2", "value": 128}, {"measurement": "fold induction at 50 µM", "setting": "riboswitch 15D10 [2]; Table 2", "value": 88.6}]}
{"smiles": "C/C(=C(\\CCO)SCOC(=O)C(C)(c1ccccc1)c1ccccc1)N(C=O)Cc1cnc(C)nc1N", "note": "[Compound M103, (Z)-((2-(N-((4-amino-2-methylpyrimidin-5-yl)methyl)formamido)-5-hydroxypent-2-en-3-yl)thio)methyl 2,2-diphenylpropanoate]", "values": [{"measurement": "fold induction at 50 µM", "setting": "riboswitch 15D10 [1]; Table 2", "value": 0.5}, {"measurement": "fold induction at 50 µM", "setting": "riboswitch 15D10 [2]; Table 2", "value": 0.9}]}
{"smiles": "C/C(=C(\\CCO)SCOC(=O)C(c1ccccc1)(c1ccccc1)c1ccccc1)N(C=O)Cc1cnc(C)nc1N", "note": "[Compound M105, (Z)-((2-(N-((4-amino-2-methylpyrimidin-5-yl)methyl)formamido)-5-hydroxypent-2-en-3-yl)thio)methyl 2,2,2-triphenylacetate]", "values": [{"measurement": "fold induction at 50 µM", "setting": "riboswitch 15D10 [1]; Table 2", "value": 0.2}, {"measurement": "fold induction at 50 µM", "setting": "riboswitch 15D10 [2]; Table 2", "value": 0.2}]}
{"smiles": "C/C(=C(\\CCO)SCOC(=O)C(C)(C)c1ccc2ccccc2c1)N(C=O)Cc1cnc(C)nc1N", "note": "[Compound M107, (Z)-((2-(N-((4-amino-2-methylpyrimidin-5-yl)methyl)formamido)-5-hydroxypent-2-en-3-yl)thio)methyl 2-methyl-2-(naphthalen-2-yl)propanoate]", "values": [{"measurement": "fold induction at 50 µM", "setting": "riboswitch 15D10 [1]; Table 2", "value": 40.2}, {"measurement": "fold induction at 50 µM", "setting": "riboswitch 15D10 [2]; Table 2", "value": 26}]}
{"smiles": "COc1ccc2c(C(=O)S/C(CCO)=C(/C)N(C=O)Cc3cnc(C)nc3N)cccc2c1", "note": "[Compound M108, (Z)—S-(2-(N-((4-amino-2-methylpyrimidin-5-yl)methyl)formamido)-5-hydroxypent-2-en-3-yl) 6-methoxynaphthalene-1-carbothioate]", "values": [{"measurement": "fold induction at 50 µM", "setting": "riboswitch 15D10 [1]; Table 2", "value": 129}, {"measurement": "fold induction at 50 µM", "setting": "riboswitch 15D10 [2]; Table 2", "value": 75.8}]}
{"smiles": "CCOc1ccc(C(=O)S/C(CCO)=C(/C)N(C=O)Cc2cnc(C)nc2N)c2ccccc12", "note": "[Compound M109, (Z)—S-(2-(N-((4-amino-2-methylpyrimidin-5-yl)methyl)formamido)-5-hydroxypent-2-en-3-yl) 4-ethoxynaphthalene-1-carbothioate]", "values": [{"measurement": "fold induction at 50 µM", "setting": "riboswitch 15D10 [1]; Table 2", "value": 87.3}, {"measurement": "fold induction at 50 µM", "setting": "riboswitch 15D10 [2]; Table 2", "value": 22.6}]}
{"smiles": "CCc1ccc(C(=O)S/C(CCO)=C(/C)N(C=O)Cc2cnc(C)nc2N)c2ccccc12", "note": "[Compound M110, (Z)—S-(2-(N-((4-amino-2-methylpyrimidin-5-yl)methyl)formamido)-5-hydroxypent-2-en-3-yl) 4-ethylnaphthalene-1-carbothioate]", "values": [{"measurement": "fold induction at 50 µM", "setting": "riboswitch 15D10 [1]; Table 2", "value": 146}, {"measurement": "fold induction at 50 µM", "setting": "riboswitch 15D10 [2]; Table 2", "value": 65.7}]}
{"smiles": "C/C(=C(\\CCO)SC(=O)c1cccc2c(Br)cccc12)N(C=O)Cc1cnc(C)nc1N", "note": "[Compound M111, (Z)—S-(2-(N-((4-amino-2-methylpyrimidin-5-yl)methyl)formamido)-5-hydroxypent-2-en-3-yl) 5-bromonaphthalene-1-carbothioate]", "values": [{"measurement": "fold induction at 50 µM", "setting": "riboswitch 15D10 [1]; Table 2", "value": 175}, {"measurement": "fold induction at 50 µM", "setting": "riboswitch 15D10 [2]; Table 2", "value": 181}]}
{"smiles": "C/C(=C(\\CCO)SC(=O)c1ccccc1Oc1ccccc1)N(C=O)Cc1cnc(C)nc1N", "note": "[Compound M113, (Z)—S-(2-(N-((4-amino-2-methylpyrimidin-5-yl)methyl)formamido)-5-hydroxypent-2-en-3-yl) 2-phenoxybenzothioate]", "values": [{"measurement": "fold induction at 50 µM", "setting": "riboswitch 15D10 [1]; Table 2", "value": 272}, {"measurement": "fold induction at 50 µM", "setting": "riboswitch 15D10 [1]; Table 3", "value": 348}, {"measurement": "fold induction at 50 µM", "setting": "riboswitch 15D10 [2]; Table 2", "value": 213}, {"measurement": "fold induction at 50 µM", "setting": "riboswitch 15D10 [2]; Table 3", "value": 265}]}
{"smiles": "C/C(=C(\\CCO)SC(=O)c1ccc(C(C)(C)C)cc1)N(C=O)Cc1cnc(C)nc1N", "note": "[Compound M114, (Z)—S-(2-(N-((4-amino-2-methylpyrimidin-5-yl)methyl)formamido)-5-hydroxypent-2-en-3-yl) 4-(tert-butyl)benzothioate]", "values": [{"measurement": "fold induction at 50 µM", "setting": "riboswitch 15D10 [1]; Table 2", "value": 88.8}, {"measurement": "fold induction at 50 µM", "setting": "riboswitch 15D10 [2]; Table 2", "value": 50.1}]}
{"smiles": "CCOc1cc(C(C)(C)C)ccc1C(=O)S/C(CCO)=C(/C)N(C=O)Cc1cnc(C)nc1N", "note": "[Compound M115, (Z)—S-(2-(N-((4-amino-2-methylpyrimidin-5-yl)methyl)formamido)-5-hydroxypent-2-en-3-yl) 4-(tert-butyl)-2-ethoxybenzothioate]", "values": [{"measurement": "fold induction at 50 µM", "setting": "riboswitch 15D10 [1]; Table 2", "value": 52.1}, {"measurement": "fold induction at 50 µM", "setting": "riboswitch 15D10 [2]; Table 2", "value": 19.9}]}
{"smiles": "C/C(=C(\\CCO)SC(=O)c1c(F)cccc1Oc1ccccc1)N(C=O)Cc1cnc(C)nc1N", "note": "[Compound M126, (Z)—S-(2-(N-((4-amino-2-methylpyrimidin-5-yl)methyl)formamido)-5-hydroxypent-2-en-3-yl) 2-fluoro-6-phenoxybenzothioate]", "values": [{"measurement": "fold induction at 50 µM", "setting": "riboswitch 15D10 [1]; Table 3", "value": 305}, {"measurement": "fold induction at 50 µM", "setting": "riboswitch 15D10 [2]; Table 3", "value": 147}]}
{"smiles": "C/C(=C(\\CCO)SC(=O)c1c(Cl)cccc1Oc1ccccc1)N(C=O)Cc1cnc(C)nc1N", "note": "[Compound M127, (Z)—S-(2-(N-((4-amino-2-methylpyrimidin-5-yl)methyl)formamido)-5-hydroxypent-2-en-3-yl) 2-chloro-6-phenoxybenzothioate]", "values": [{"measurement": "fold induction at 50 µM", "setting": "riboswitch 15D10 [1]; Table 3", "value": 7.39}, {"measurement": "fold induction at 50 µM", "setting": "riboswitch 15D10 [2]; Table 3", "value": 0.46}]}
